In patent US20140179681A1, “METHODS AND COMPOSITIONS OF TARGETED DRUG DEVELOPMENT” (priority 2010, published 2014):
Like-named read-outs stand apart in the source and are kept apart here.

Legend:
EGFR = biological target: T1, EGFR (Homo sapiens, UniProt P00533); experiment: EGFR in-cell Western (ICW) screening protocol (EGFR inhibition assay); assay type: cell-based;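 further: compound at 125 µM in assay in A431 cells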
T1 construct: host or cells: A431
Method in brief: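 In-cell Western read-out: fixed A431 cells were co-stained for total EGFR and phospho-EGFR (Tyr1173; some runs Tyr1045). Before fixation, cells were serum-starved for 2 h, exposed to compound for 4 h, then given EGF for 10 min, usually at 10 ng/ml final (6.6 or 12.5 ng/ml in some runs).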

[1] = test system: epithelial carcinoma A431 cell line; experiment: MTT Cell Proliferation Assay, A431 cells; assay type: cell-based; conditions: taken as A431 cells; for IC50: read-out: MTT Screen, first value of cell
Method in brief: (§1)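 Each concentration ran in quadruplicate across duplicate plates, with compounds serially diluted in DMSO and delivered at 0.5% DMSO in 0.5% FBS medium for 3 days.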

MDBK line = experiment: MTT Cell Proliferation Assay, MDBK cells; assay type: cell-based, bovine; conditions: second value of 'a/b (c)', taken as MDBK cells; for IC50: read-out: MTT Screen, second value of cell
Method in brief: as §1

[2] = Homo sapiens, A-431, first value of 'a/b (c)'

T1 sequence (P00533 25-1210): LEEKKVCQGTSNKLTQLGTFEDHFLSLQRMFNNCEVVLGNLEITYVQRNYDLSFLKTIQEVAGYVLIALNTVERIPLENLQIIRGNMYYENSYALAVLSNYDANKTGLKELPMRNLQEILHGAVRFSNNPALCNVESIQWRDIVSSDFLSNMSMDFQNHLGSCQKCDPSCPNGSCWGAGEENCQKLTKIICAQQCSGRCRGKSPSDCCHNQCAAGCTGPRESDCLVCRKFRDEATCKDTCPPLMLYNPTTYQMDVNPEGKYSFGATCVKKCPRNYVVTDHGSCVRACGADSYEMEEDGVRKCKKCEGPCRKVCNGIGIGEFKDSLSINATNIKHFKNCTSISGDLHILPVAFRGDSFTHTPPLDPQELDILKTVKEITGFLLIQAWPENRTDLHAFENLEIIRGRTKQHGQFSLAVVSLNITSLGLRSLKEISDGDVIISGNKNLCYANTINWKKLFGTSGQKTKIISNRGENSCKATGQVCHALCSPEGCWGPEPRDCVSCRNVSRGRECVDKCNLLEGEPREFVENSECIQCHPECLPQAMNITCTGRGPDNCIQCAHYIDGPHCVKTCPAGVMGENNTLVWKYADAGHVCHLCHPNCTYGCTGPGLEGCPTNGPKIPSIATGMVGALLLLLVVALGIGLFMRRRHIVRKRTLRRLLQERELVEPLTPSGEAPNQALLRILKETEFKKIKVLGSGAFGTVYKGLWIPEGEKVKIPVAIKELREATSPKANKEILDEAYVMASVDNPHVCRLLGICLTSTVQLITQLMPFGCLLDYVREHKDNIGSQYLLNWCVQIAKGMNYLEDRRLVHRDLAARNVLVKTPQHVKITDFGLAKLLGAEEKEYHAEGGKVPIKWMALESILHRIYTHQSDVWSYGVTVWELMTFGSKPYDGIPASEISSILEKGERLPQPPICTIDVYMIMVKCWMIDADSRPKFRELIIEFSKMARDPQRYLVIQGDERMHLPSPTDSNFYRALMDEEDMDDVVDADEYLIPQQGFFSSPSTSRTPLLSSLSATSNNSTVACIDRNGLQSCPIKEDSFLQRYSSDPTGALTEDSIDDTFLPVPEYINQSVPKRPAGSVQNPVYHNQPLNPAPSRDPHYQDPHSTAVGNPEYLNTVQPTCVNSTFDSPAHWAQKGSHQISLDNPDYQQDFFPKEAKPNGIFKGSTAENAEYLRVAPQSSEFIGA

| Compound | ICW Screen (ICW Inhibition) (EGFR) | IC50 [1, 2] | IC50 (MDBK line; Bos taurus, MDBK) | IC50 ([1]; first value of 'a/b (c)') | IC50 (MDBK line) | MTT Screen, second value of cell (MDBK line) | MTT Screen, first value of cell ([1]; first value of 'a/b (c)') |
| --- | --- | --- | --- | --- | --- | --- | --- |
| Cc1ccc(NS(=O)(=O)c2ccc(NC(=S)NC(=O)C(C)C)cc2)cc1C [AD4-12003] | 32.007 | 11.5 µM | 12.8 µM |  |  |  |  |
| Cc1ccc(NS(=O)(=O)c2ccc(NC(=S)NC(=O)CC(C)C)cc2)c(C)c1 [AD4-12010] | 33.772 | 6.68 µM | 6.16 µM |  |  |  |  |
| C=CCN(CC=C)S(=O)(=O)c1ccc(NC(=S)NC(=O)/C=C/c2ccc(OC)cc2)cc1 [AD4-12016] | 34.399 | 15.8 µM | 23.5 µM |  |  |  |  |
| Cc1cc(C)cc(NS(=O)(=O)c2ccc(NC(=S)NC(=O)CC(C)C)cc2)c1 [AD4-12017] | 27.373 | 6.53 µM | 5.93 µM |  |  |  |  |
| Cc1ccc(NS(=O)(=O)c2ccc(NC(=S)NC(=O)CC(C)C)cc2)cc1C [AD4-12024] | 31.244 | 6.77 µM | 6.34 µM |  |  |  |  |
| CCC(c1ccccc1)S(=O)(=O)c1ccc(NC(=S)NC(=O)C(C)C)cc1 (centres unmarked) [AD4-12029] | 30.376 | 25.3 µM | 51.1 µM |  |  |  |  |
| COc1ccc(NS(=O)(=O)c2ccc(NC(=S)NC(=O)CC(C)C)cc2)cc1 [AD4-12040] | 47.822 | 17.1 µM | 14.8 µM |  |  |  |  |
| CC(C)CC(=O)NC(=S)Nc1ccc(S(=O)(=O)NC2CCCCC2)cc1 [AD4-12041] | 43.515 | 6.61 µM | 14.3 µM |  |  |  |  |
| O=C(NC(=S)Nc1ccc(S(=O)(=O)Nc2ccccc2)cc1)C1CCC1 [AD4-12044] | 34.334 | 63.2 µM | 33.1 µM |  |  |  |  |
| CCN(CC)S(=O)(=O)c1ccc(NC(=S)NC(=O)CC(C)C)cc1 [AD4-12049] | 36.966 | 32.3 µM | 12 µM |  |  |  |  |
| CN1CCN(S(=O)(=O)c2ccc(NC(=S)NC(=O)/C=C/c3ccccc3Cl)cc2)CC1 [AD4-12059] | 28.33 | 32.2 µM | 37.7 µM |  |  |  |  |
| CN1CCN(S(=O)(=O)c2ccc(NC(=S)NC(=O)/C=C/c3cccs3)cc2)CC1 [AD4-12060] | 34.272 | 48.5 µM | 40.5 µM |  |  |  |  |
| Cc1ccc(NS(=O)(=O)c2ccc(NC(=S)NC(=O)C(C)C)cc2)c(C)c1 [AD4-12062] | 34.268 | 64.5 µM | 18.8 µM |  |  |  |  |
| O=C(NC(=S)Nc1ccc(S(=O)(=O)N2CCCCC2)cc1)C1CCC1 [AD4-12064] | 34.778 |  |  | 47.8 µM | 42.7 µM |  |  |
| Cc1ccccc1OCC(=O)NC(=S)Nc1ccc(S(=O)(=O)NC2CCCCC2)cc1 [AD4-12073] | 29.313 | 19.5 µM | 32.3 µM | 11.6 µM | 17 µM |  |  |
| O=C(Cc1ccccc1)NC(=S)Nc1ccc(S(=O)(=O)Nc2ccccc2)cc1 [AD4-12074] | 29.545 | 16.2 µM |  |  | 32.3 µM |  |  |
| O=C(COc1ccc(Cl)cc1Cl)NC(=S)Nc1ccc(S(=O)(=O)NC2CCCCC2)cc1 [AD4-12075] | 25.956 | 19.2 µM | 40.1 µM |  |  |  |  |
| Cc1ccc(NS(=O)(=O)c2ccc(NC(=S)NC(=O)C3CC3)cc2)c(C)c1 [AD4-12097] | 48.543 | 15.1 µM | 9.85 µM |  |  |  |  |
| O=C(NC(=S)Nc1ccc(S(=O)(=O)Nc2ccccc2)cc1)C1CC1 [AD4-12098] | 25.946 | 23.4 µM | 16.4 µM |  |  |  |  |
| O=C(NC(=S)Nc1ccc(S(=O)(=O)N2CCCCCC2)cc1)C1CCC1 [AD4-12104] | 41.204 | 39 µM | 37.6 µM |  |  |  |  |
| CN1CCN(S(=O)(=O)c2ccc(NC(=S)NC(=O)/C=C/c3ccc(F)cc3)cc2)CC1 [AD4-12107] | 41.933 | 14.1 µM |  |  |  | non- conver- gent |  |
| COc1ccc(NS(=O)(=O)c2ccc(NC(=S)NC(=O)C3CCCC3)cc2)cc1 [AD4-12119] | 55.94 | 18.6 µM | 14.6 µM |  |  |  |  |
| COc1cc(NS(=O)(=O)c2ccc(NC(=S)NC(=O)/C=C/c3ccccc3)cc2)nc(OC)n1 [AD4-12122] | 35.068 |  | 40.3 µM |  |  |  | non- conver- gent |
| CN(Cc1ccccc1)S(=O)(=O)c1ccc(NC(=S)NC(=O)/C=C/c2ccccc2)cc1 [AD4-12126] | 37.795 | 14.9 µM | 41.9 µM |  |  |  |  |
